According to ChEMBL document CHEMBL1201862, “PubChem BioAssay data set” (2004):
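Protocol summary: plate cells (96-well), add compound at 5 concentrations, incubate 48 h, interpolate endpoints linearly. The concentration for 50% growth inhibition is given as GI50.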 Active and inactive are the calls of the source. Rule as the data show it: active = GI50 up to about 1.1 µM and inactive = higher.

Key:
Assay in all cases: NCI anticancer screen, dose series, 48 h
A549 = test system: A549
CCRF-CEM = test system: CCRF-CEM
COLO 205 = test system: COLO 205
EKVX = test system: EKVX
HCC 2998 = test system: HCC 2998
HL-60 = test system: HL-60
HOP-62 = test system: HOP-62
IGROV-1 = test system: IGROV-1
MOLT-4 = test system: MOLT-4
NCI-H460 = test system: NCI-H460
OVCAR-4 = test system: OVCAR-4
OVCAR-8 = test system: OVCAR-8
RPMI-8226 = test system: RPMI-8226
SF-268 = test system: SF-268
SF-295 = test system: SF-295
SK-MEL-28 = test system: SK-MEL-28
SNB-19 = test system: SNB-19
SW-620 = test system: SW-620
UACC-62 = test system: UACC-62
UO-31 = test system: UO-31

Measured: GI50

Nc1ccc(OCC(O)N2C(=O)c3ccccc3C2=O)cc1 (stereo not given)
inactive: A549 > 100 µM | CCRF-CEM > 100 µM | COLO 205 > 100 µM | EKVX > 100 µM | HCC 2998 > 100 µM | HL-60 > 100 µM | HOP-62 > 100 µM | IGROV-1 > 100 µM | MOLT-4 > 100 µM | NCI-H460 > 100 µM | OVCAR-4 > 100 µM | OVCAR-8 > 100 µM | RPMI-8226 > 100 µM | SF-268 > 100 µM | SF-295 > 100 µM | SK-MEL-28 > 100 µM | SNB-19 > 100 µM | SW-620 76.9 µM | UACC-62 > 100 µM | UO-31 > 100 µM

COC(=O)C1=C(C)N2CCCOC2(C)C(C(=O)OC)C1c1cccc(Cl)c1 (stereo not given)
inactive: A549 > 100 µM | CCRF-CEM 27.7 µM | COLO 205 17.3 µM | EKVX 14 µM | HCC 2998 35.3 µM | HL-60 16.4 µM | HOP-62 20.7 µM | IGROV-1 25.7 µM | MOLT-4 16.7 µM | NCI-H460 20.5 µM | OVCAR-4 56.5 µM | OVCAR-8 24.9 µM | RPMI-8226 14.3 µM | SF-268 32.8 µM | SF-295 21.7 µM | SK-MEL-28 21.7 µM | SNB-19 42.3 µM | SW-620 > 100 µM | UACC-62 15.2 µM | UO-31 22.3 µM

CCCCC#CS(=O)(=O)C(F)(F)F
inactive: A549 > 78.9 µM | CCRF-CEM 48.6 µM | COLO 205 > 75.7 µM | EKVX > 100 µM | HCC 2998 > 31.6 µM | HL-60 23.2 µM | HOP-62 > 61.5 µM | IGROV-1 > 100 µM | MOLT-4 33.1 µM | NCI-H460 > 92.5 µM | OVCAR-4 27.9 µM | OVCAR-8 97.1 µM | RPMI-8226 47.4 µM | SF-268 > 72.4 µM | SF-295 20.3 µM | SK-MEL-28 > 60 µM | SNB-19 > 90.2 µM | SW-620 > 100 µM | UACC-62 48.2 µM | UO-31 68.9 µM
